Data as given in patent US10329294B2, “Pyrazolopyrimidine inhibitors of IRAK4 activity” (MERCK SHARP & DOHME CORP., priority 2015, dated 2019).
Structures can show the parent of a compound that is named as a salt.

target: IRAK4 (Homo sapiens (Human), UniProt Q9NWZ3); assay: IRAK4 Kinase Assay; type: biochemical; conditions: IMAP fluorescence polarization, 0.5 nM GST tagged IRAK4, 100 μM ATP, 30 minutes at 25° C.; read-out: IRAK4 IC50
Sequence (Q9NWZ3 whole entry): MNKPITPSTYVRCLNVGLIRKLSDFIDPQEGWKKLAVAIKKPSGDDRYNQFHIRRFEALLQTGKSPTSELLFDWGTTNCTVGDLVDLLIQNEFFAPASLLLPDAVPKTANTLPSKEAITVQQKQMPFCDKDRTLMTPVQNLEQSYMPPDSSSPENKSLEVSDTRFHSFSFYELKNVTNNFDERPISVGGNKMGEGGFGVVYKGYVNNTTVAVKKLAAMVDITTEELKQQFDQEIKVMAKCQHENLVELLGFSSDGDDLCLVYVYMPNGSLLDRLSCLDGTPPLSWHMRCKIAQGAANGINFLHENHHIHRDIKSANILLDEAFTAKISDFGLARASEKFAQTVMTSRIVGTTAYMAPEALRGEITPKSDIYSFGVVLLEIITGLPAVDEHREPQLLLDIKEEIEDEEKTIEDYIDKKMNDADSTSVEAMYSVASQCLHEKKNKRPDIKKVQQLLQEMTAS

Row | Compound | IC50 [nM]
1 | Cn1cc(NC(=O)c2cnn3ccc(N4CCN5CCC4CC5)nc23)c(C(F)(F)F)n1 [Example 40, 5-(1,4-diazabicyclo[3.2.2]non-4-yl)-N-[1-methyl-3-(trifluoromethyl)-1H-pyrazol-4-yl]pyrazolo[1,5-a]pyrimidine-3-carboxamide trifluoroacetate] | 497
2 | Cn1cc(NC(=O)c2cnn3ccc(N[C@@H]4CNCC[C@H]4F)nc23)c(C(F)(F)F)n1 (single isomer, unassigned) [Example 232, 5-{[(3R,4R)- or (3S,4S)-4-fluoropiperidin-3-yl]amino}-N-[1-methyl-3-(trifluoromethyl)-1H-pyrazol-4-yl]pyrazolo[1,5-a]pyrimidine-3-carboxamide] | 13
3 | CN1CCN(c2ccn3ncc(C(=O)Nc4cn(C)nc4C(F)(F)F)c3n2)C(C)(C)C1 [Example 35, N-[1-methyl-3-(trifluoromethyl)-1H-pyrazol-4-yl]-5-(2,2,4-trimethylpiperazin-1-yl)pyrazolo[1,5-a]pyrimidine-3-carboxamide trifluoroacetate] | 589
4 | Cn1cc(NC(=O)c2cnn3ccc(N4CCNCC5(CC5)C4)nc23)c(C(F)F)n1 [Example 86, 5-(5,8-diazaspiro[2.6]non-5-yl)-N-[3-(difluoromethyl)-1-methyl-1H-pyrazol-4-yl]pyrazolo[1,5-a]pyrimidine-3-carboxamide trifluoroacetate] | 2
5 | N[C@H]1CCCC[C@H]1Nc1ccn2ncc(C(=O)Nc3ccccc3Cl)c2n1 [Example 104, 5-{[(1R,2)S-2-aminocyclohexyl]amino}-N-(2-chlorophenyl)pyrazolo[1,5-a]pyrimidine-3-carboxamide trifluoroacetate] | 1
6 | Cn1cc(NC(=O)c2cnn3ccc(NC4CCNCC4)nc23)c(C(F)(F)F)n1 [Example 7, N-[1-methyl-3-(trifluoromethyl)-1H-pyrazol-4-yl]-5-(piperidin-4-ylamino)pyrazolo[1,5-a]pyrimidine-3-carboxamide trifluoroacetate] | 39
7 | Cn1cc(NC(=O)c2cnn3ccc(N4CCNC(C5CC5)C4)nc23)c(C(F)(F)F)n1 (stereo not drawn) [Example 28, 5-(3-cyclopropylpiperazin-1-yl)-N-[1-methyl-3-(trifluoromethyl)-1H-pyrazol-4-yl]pyrazolo[1,5-a]pyrimidine-3-carboxamide trifluoroacetate] | 72
8 | O=C(Nc1cn(CC(F)(F)F)nc1C(F)(F)F)c1cnn2ccc(N3CCNCC3)nc12 [Example 299, 5-piperazin-1-yl-N-[1-(2,2,2-trifluoroethyl)-3-(trifluoromethyl)-1H-pyrazol-4-yl]pyrazolo[1,5-a]pyrimidine-3-carboxamide trifluoroacetate] | 81
9 | Cn1cc(NC(=O)c2cnn3ccc(N4CC5CNCC4C5)nc23)c(C(F)F)n1 (stereo not drawn) [Example 238, 5-[3,6-diazabicyclo[3.2.1]oct-6-yl]-N-[3-(difluoromethyl)-1-methyl-1H-pyrazol-4-yl]pyrazolo[1,5-a]pyrimidine-3-carboxamide] | 4
10 | O=C(Nc1cn(CC(F)(F)F)nc1C(F)(F)F)c1cnn2ccc(N3CC4CCC3CN4)nc12 (stereo not drawn) [Example 58, 5-(2,5-diazabicyclo[2.2.2]oct-2-yl)-N-[1-(2,2,2-trifluoroethyl)-3-(trifluoromethyl)-1H-pyrazol-4-yl]pyrazolo[1,5-a]pyrimidine-3-carboxamide trifluoroacetate] | 267
11 | CC(C)(C)n1cc(NC(=O)c2cnn3ccc(N[C@@H]4CCCC(F)(F)[C@@H]4N)nc23)c(C(F)(F)F)n1 [Example 49, 5-{[(1R,2R)-2-amino-3,3-difluorocyclohexyl]amino}-N-[1-tert-butyl-3-(trifluoromethyl)-1H-pyrazol-4-yl]pyrazolo[1,5-a]pyrimidine-3-carboxamide trifluoroacetate] | 890
12 | Cn1cc(NC(=O)c2cnn3ccc(N4CCNCC4C4CC4)nc23)c(C(F)(F)F)n1 (stereo not drawn) [Example 29, 5-(2-cyclopropylpiperazin-1-yl)-N-[1-methyl-3-(trifluoromethyl)-1H-pyrazol-4-yl]pyrazolo[1,5-a]pyrimidine-3-carboxamide trifluoroacetate] | 24
13 | O=C(Nc1ccccc1I)c1cnn2ccc(N3CC4CCC3CN4)nc12 (stereo not drawn) [Example 103, 5-(2,5-diazabicyclo[2.2.2]oct-2-yl)-N-(2-iodophenyl)pyrazolo[1,5-a]pyrimidine-3-carboxamide trifluoroacetate] | 6060
14 | CC(C)n1cc(NC(=O)c2cnn3ccc(N[C@@H]4CCCC[C@@H]4N)nc23)c(C(F)(F)F)n1 [Example 291, 5-{[(1R,2S)-2-aminocyclohexyl]amino}-N-[1-(1-methylethyl)-3-(trifluoromethyl)-1H-pyrazol-4-yl]pyrazolo[1,5-a]pyrimidine-3-carboxamide trifluoroacetate] | 0.8
15 | Cn1cc(NC(=O)c2cnn3ccc(N4CC5CNC(C5)C4)nc23)c(C(F)(F)F)n1 (stereo not drawn) [Example 223, 5-(3,6-diazabicyclo[3.2.1]oct-3-yl)-N-[1-methyl-3-(trifluoromethyl)-1H-pyrazol-4-yl]pyrazolo[1,5-a]pyrimidine-3-carboxamide trifluoroacetate] | 57
16 | CCN1CCCN(c2ccn3ncc(C(=O)Nc4cn(C)nc4C(F)(F)F)c3n2)CC1 [Example 10, 5-(4-ethyl-1,4-diazepan-1-yl)-N-[1-methyl-3-(trifluoromethyl)-1H-pyrazol-4-yl]pyrazolo[1,5-a]pyrimidine-3-carboxamide] | 1100
17 | Cn1cc(NC(=O)c2cnn3ccc(N4C[C@H]5CC[C@@H]4CN5)nc23)c(C#N)n1 (single isomer, unassigned) [Example 157, N-(3-cyano-1-methyl-1H-pyrazol-4-yl)-5-[(1S,4S)- or (1R,4R)-2,5-diazabicyclo[2.2.2]oct-2-yl]pyrazolo[1,5-a]pyrimidine-3-carboxamide trifluoroacetate] | 60
18 | Cn1cc(NC(=O)c2cnn3ccc(N4C[C@H]5CN[C@H](C5)C4)nc23)c(C(F)F)n1 (single isomer, unassigned) [Example 184, 5-[(1S,5S)- or (1R,5R)-3,6-diazabicyclo[3.2.1]oct-3-yl]-N-[3-(difluoromethyl)-1-methyl-1H-pyrazol-4-yl]pyrazolo[1,5-a]pyrimidine-3-carboxamide trifluoroacetate] | 47
19 | Cn1cc(NC(=O)c2cnn3ccc(N4CCC[C@H](O)C4)nc23)c(C(F)F)n1 [Example 26, N-[3-(difluoromethyl)-1-methyl-1H-pyrazol-4-yl]-5-[(3S)-3-hydroxypiperidin-1-yl]pyrazolo[1,5-a]pyrimidine-3-carboxamide] | 0.5
20 | Cn1cc(NC(=O)c2cnn3ccc(N4[C@@H]5CCNC[C@H]4CC5)nc23)c(C(F)(F)F)n1 (single isomer, unassigned) [Example 221, 5-[(1R,6S)- or (1S,6R)-3,9-diazabicyclo[4.2.1]non-9-yl]-N-[1-methyl-3-(trifluoromethyl)-1H-pyrazol-4-yl]pyrazolo[1,5-a]pyrimidine-3-carboxamide trifluoroacetate] | 330

same assay, conditions: IRAK4 IC50 (nM), IMAP fluorescence polarization, 0.5 nM GST tagged IRAK4, 100 μM ATP, 30 minutes at 25° C.

Row | Compound | IC50 [nM]
21 | Cn1cc(NC(=O)c2cnn3ccc(N4CC5CNCC4COC5)nc23)c(C(F)(F)F)n1 (stereo not drawn) [Example 212, 5-(3-Oxa-7,9-diazabicyclo[3.3.2]decan-9-yl)-N-(1-methyl-3-(trifluoromethyl)-1H-pyrazol-4-yl)pyrazolo[1,5-a]pyrimidine-3-carboxamide] | 9
